Data set [1] in a line: excess molar enthalpy (molar enthalpy of mixing); xn = mol fraction of the nth substance listed. Particulars: 363.15 K, Liquid, Flow calorimetry.
A short description of data set [2]: activity coefficient (dimensionless); of the first substance listed, at infinite dilution; xn = mol fraction of the nth substance listed. Particulars: Liquid, Chromatography, x1 = 0.

Numbers after ± are expanded uncertainties.

Regarding `CCCCCC[N+]1(C)CCCC1.O=S(=O)([N-]S(=O)(=O)C(F)(F)F)C(F)(F)F` + CCCCCC, the excess molar enthalpy in data set [1] (1720 kPa, x2 = 0.067) is 0.0295 ± 0.000717 kcal/mol; in data set [1] (1720 kPa, x2 = 0.1285), 0.0574 ± 0.00129 kcal/mol; in data set [1] (1720 kPa, x2 = 0.1852), 0.0807 ± 0.00177 kcal/mol; in data set [1] (1720 kPa, x2 = 0.2375), 0.1 ± 0.0022 kcal/mol; in data set [1] (1720 kPa, x2 = 0.2859) it was 0.114 ± 0.00239 kcal/mol; in data set [1] (1720 kPa, x2 = 0.3309), 0.116 ± 0.00263 kcal/mol. In addition, the excess molar enthalpy in data set [1] (1720 kPa, x2 = 0.483) was determined as 0.0924 ± 0.00203 kcal/mol; in data set [1] (1720 kPa, x2 = 0.6514), 0.0629 ± 0.00141 kcal/mol.
Consider `CCCCCC` [hexane] + CCCCCCCC[N+]1(C)CCCC1.O=S(=O)([N-]S(=O)(=O)C(F)(F)F)C(F)(F)F, for which the activity coefficient in data set [2] (303.16 K) stood at 5.24 ± 0.24; in data set [2] (313.13 K), 5.05 ± 0.23; in data set [2] (323.17 K) it was 4.9 ± 0.22; in data set [2] (333.19 K), 4.8 ± 0.22.
In the case of `CCCCCCCCCC` [decane] + CCCCCC[N+]1(C)CCCC1.O=S(=O)([N-]S(=O)(=O)C(F)(F)F)C(F)(F)F, the activity coefficient in data set [2] (303.13 K) came to 28.1 ± 1.3; in data set [2] (313.17 K) it was 27 ± 1.2; in data set [2] (323.16 K), 25.1 ± 1.2; in data set [2] (333.16 K), 24.3 ± 1.1; in data set [2] (343.13 K) it was 23 ± 1.1.
The like results for `CCCCCCCCC` [nonane] + CCCCCC[N+]1(C)CCCC1.O=S(=O)([N-]S(=O)(=O)C(F)(F)F)C(F)(F)F were, in that order, 21.4 ± 0.99, 19.9 ± 0.92, 18.8 ± 0.87, 18.1 ± 0.84 and 17.1 ± 0.79.
Take `C=CCCCCCCCC` [1-decene] + CCCCCC[N+]1(C)CCCC1.O=S(=O)([N-]S(=O)(=O)C(F)(F)F)C(F)(F)F: the activity coefficient was found to be 18.8 ± 0.87 in data set [2] (303.16 K), 18 ± 0.83 in data set [2] (313.15 K), 17.3 ± 0.8 in data set [2] (323.15 K) and 16.9 ± 0.78 in data set [2] (333.16 K).
Consider `C=CCCCC` [hex-1-ene] + CCCCCC[N+]1(C)CCCC1.O=S(=O)([N-]S(=O)(=O)C(F)(F)F)C(F)(F)F, for which the activity coefficient turned out to be 4.77 ± 0.22 in data set [2] (303.16 K), 4.63 ± 0.21 in data set [2] (313.17 K), 4.55 ± 0.21 in data set [2] (323.15 K) and 4.45 ± 0.2 in data set [2] (333.15 K).
Regarding `CCCCCC[N+]1(C)CCCC1.O=S(=O)([N-]S(=O)(=O)C(F)(F)F)C(F)(F)F` + CCCCC, the excess molar enthalpy in data set [1] (2135 kPa, x2 = 0.0699) was found to be 0.265 ± 0.00574 kcal/mol; in data set [1] (2135 kPa, x2 = 0.1337) it was 0.052 ± 0.00117 kcal/mol; in data set [1] (2135 kPa, x2 = 0.1921), 0.0702 ± 0.00155 kcal/mol; in data set [1] (2135 kPa, x2 = 0.2952) it was 0.096 ± 0.0021 kcal/mol; in data set [1] (2135 kPa, x2 = 0.341), 0.105 ± 0.00229 kcal/mol; in data set [1] (2135 kPa, x2 = 0.4229), 0.0964 ± 0.0021 kcal/mol. Besides, the excess molar enthalpy was 0.0849 ± 0.00186 kcal/mol in data set [1] (2135 kPa, x2 = 0.4942); 0.0741 ± 0.00165 kcal/mol in data set [1] (2135 kPa, x2 = 0.5568); 0.056 ± 0.00124 kcal/mol in data set [1] (2135 kPa, x2 = 0.6615); 0.0418 ± 0.000956 kcal/mol in data set [1] (2135 kPa, x2 = 0.7457); 0.031 ± 0.000741 kcal/mol in data set [1] (2135 kPa, x2 = 0.8147); 0.0187 ± 0.000478 kcal/mol in data set [1] (2135 kPa, x2 = 0.8979). The excess molar enthalpy in data set [1] (2135 kPa, x2 = 0.9635) turned out to be 0.00796 ± 0.000287 kcal/mol.
`C=CCCC` [1-pentene] + CCCCCC[N+]1(C)CCCC1.O=S(=O)([N-]S(=O)(=O)C(F)(F)F)C(F)(F)F: the activity coefficient in data set [2] (303.16 K) was 3.4 ± 0.15; in data set [2] (313.17 K), 3.37 ± 0.15; in data set [2] (323.15 K), 3.33 ± 0.15; in data set [2] (333.15 K), 3.31 ± 0.15.
Regarding `C=CCCCCC` [1-heptene] + CCCCCCCC[N+]1(C)CCCC1.O=S(=O)([N-]S(=O)(=O)C(F)(F)F)C(F)(F)F, the activity coefficient in data set [2] (313.11 K) stood at 4.37 ± 0.2; in data set [2] (323.14 K), 4.22 ± 0.19; in data set [2] (333.17 K) it was 4.1 ± 0.19; in data set [2] (343.21 K), 4.02 ± 0.18.
Turning to `C=CCCC` [1-pentene] + CCCCCCCC[N+]1(C)CCCC1.O=S(=O)([N-]S(=O)(=O)C(F)(F)F)C(F)(F)F, the activity coefficient stood at 2.5 ± 0.11 in data set [2] (303.14 K), 2.43 ± 0.11 in data set [2] (313.13 K), 2.33 ± 0.11 in data set [2] (323.11 K) and 2.25 ± 0.1 in data set [2] (343.11 K).
With `CCCCCCC` [heptane] + CCCCCCCC[N+]1(C)CCCC1.O=S(=O)([N-]S(=O)(=O)C(F)(F)F)C(F)(F)F, the activity coefficient was 6.9 ± 0.32 in data set [2] (303.1 K), 6.73 ± 0.31 in data set [2] (313.15 K), 6.54 ± 0.3 in data set [2] (323.09 K) and 6.36 ± 0.29 in data set [2] (333.13 K).
The like results for `CCCCCCCC` [octane] + CCCCCCCC[N+]1(C)CCCC1.O=S(=O)([N-]S(=O)(=O)C(F)(F)F)C(F)(F)F were, in that order, 8.78 ± 0.4, 8.55 ± 0.39, 8.39 ± 0.38 and 8.22 ± 0.38.
As for `C=CCCCC` [hex-1-ene] + CCCCCCCC[N+]1(C)CCCC1.O=S(=O)([N-]S(=O)(=O)C(F)(F)F)C(F)(F)F, the activity coefficient in data set [2] (303.14 K) was determined as 3.11 ± 0.14; in data set [2] (313.13 K) it was 3.29 ± 0.15; in data set [2] (323.11 K), 3.22 ± 0.15; in data set [2] (343.11 K) it was 3.15 ± 0.14.
Turning to `CCCCCCC` [heptane] + CCCCCC[N+]1(C)CCCC1.O=S(=O)([N-]S(=O)(=O)C(F)(F)F)C(F)(F)F, the activity coefficient was found to be 11.4 ± 0.52 in data set [2] (303.16 K), 10.8 ± 0.49 in data set [2] (313.16 K), 10.3 ± 0.47 in data set [2] (323.15 K) and 9.89 ± 0.45 in data set [2] (333.12 K).
On to `CCCCCC` [hexane] + CCCCCC[N+]1(C)CCCC1.O=S(=O)([N-]S(=O)(=O)C(F)(F)F)C(F)(F)F, for which the activity coefficient in data set [2] (303.15 K) worked out at 8.4 ± 0.39; in data set [2] (313.19 K) it was 7.85 ± 0.36; in data set [2] (323.16 K), 7.21 ± 0.33; in data set [2] (333.14 K) it was 6.57 ± 0.3.
With `CCCCCCCC` [octane] + CCCCCC[N+]1(C)CCCC1.O=S(=O)([N-]S(=O)(=O)C(F)(F)F)C(F)(F)F, the activity coefficient worked out at 15.8 ± 0.73 in data set [2] (303.16 K), 14.7 ± 0.68 in data set [2] (313.16 K), 13.9 ± 0.64 in data set [2] (323.15 K) and 13.3 ± 0.61 in data set [2] (333.12 K).
On to `C=CCCCCCC` [oct-1-ene] + CCCCCCCC[N+]1(C)CCCC1.O=S(=O)([N-]S(=O)(=O)C(F)(F)F)C(F)(F)F, for which the activity coefficient in data set [2] (313.11 K) stood at 5.53 ± 0.25; in data set [2] (323.14 K) it was 5.4 ± 0.25; in data set [2] (333.17 K) it was 5.27 ± 0.24; in data set [2] (343.21 K), 5.21 ± 0.24.
On to `CCCCC` [pentane] + CCCCCC[N+]1(C)CCCC1.O=S(=O)([N-]S(=O)(=O)C(F)(F)F)C(F)(F)F, for which the activity coefficient is 5.66 ± 0.26 in data set [2] (303.15 K), 5.31 ± 0.24 in data set [2] (313.19 K), 4.8 ± 0.22 in data set [2] (323.16 K) and 4.51 ± 0.21 in data set [2] (333.14 K).
Take `C=CCCCCC` [1-heptene] + CCCCCC[N+]1(C)CCCC1.O=S(=O)([N-]S(=O)(=O)C(F)(F)F)C(F)(F)F: the activity coefficient in data set [2] (303.14 K) was found to be 6.5 ± 0.3; in data set [2] (313.16 K), 6.31 ± 0.29; in data set [2] (323.37 K), 6.11 ± 0.28; in data set [2] (333.16 K) it was 6 ± 0.27.
As for `C=CCCCCCC` [oct-1-ene] + CCCCCC[N+]1(C)CCCC1.O=S(=O)([N-]S(=O)(=O)C(F)(F)F)C(F)(F)F, the activity coefficient was 8.93 ± 0.41 in data set [2] (303.14 K), 8.61 ± 0.4 in data set [2] (313.16 K), 8.39 ± 0.38 in data set [2] (323.37 K) and 8.2 ± 0.38 in data set [2] (333.16 K).

Values taken from the NIST ThermoML archive (doi:10.1016/j.fluid.2008.11.013).
